Assay results taken from patent US9675627B2, “Dosing regimens for treating and/or preventing cerebral amyloidoses” (Amicus Therapeutics, Inc., priority 2014, dated 2017).

Key:
[1] = molecular target: T1, β-glucocerebrosidase (GCase) (Homo sapiens, UniProt P04062); assay: Selectivity: glucocerebrosidase activity in fibroblast lysate; format: biochemical; conditions: 10 μM, the highest concentration tested
T1 construct: wild-type fibroblast (CRL2076) pellets (˜2.5e6 cells/pellet) were lysed; host or cells: wild-type fibroblasts CRL2076, lysate
T1 sequence (P04062 40-536): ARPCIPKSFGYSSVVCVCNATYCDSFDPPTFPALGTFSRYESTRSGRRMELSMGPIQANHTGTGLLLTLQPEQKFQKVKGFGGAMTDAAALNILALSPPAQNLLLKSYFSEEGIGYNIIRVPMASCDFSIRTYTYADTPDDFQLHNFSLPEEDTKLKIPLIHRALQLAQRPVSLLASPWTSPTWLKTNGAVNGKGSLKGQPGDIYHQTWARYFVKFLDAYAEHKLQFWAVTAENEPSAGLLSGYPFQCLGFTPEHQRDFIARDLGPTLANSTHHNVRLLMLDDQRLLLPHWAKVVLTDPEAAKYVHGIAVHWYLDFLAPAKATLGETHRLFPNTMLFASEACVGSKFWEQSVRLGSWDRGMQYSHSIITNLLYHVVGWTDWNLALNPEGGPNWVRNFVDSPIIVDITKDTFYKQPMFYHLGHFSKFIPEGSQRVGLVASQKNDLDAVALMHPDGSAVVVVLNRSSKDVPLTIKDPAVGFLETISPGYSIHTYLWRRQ
Description: Enzymatic activity measurements were done in duplicate.

[2] = test system: SH-SY5Y cells; assay: Cell viability, tetrazolium-formazan conversion; format: cell-based, human; conditions: concentrations as high as 1 mM, up to 120 hours
Procedure: Viability of human fibroblast (CRL2076) and human neuroblastoma (SH-SY5Y) cells was tested after prolonged exposure to varying concentrations of AdDNJ. In a 96-well plate, fibroblasts were incubated in complete media containing increasing concentrations of AdDNJ up to 1 mM for either 72 or 120 hours at 37° C. in a humidified 8% CO2 incubator. Living cells were quantified using a tetrazoliuim-formazan conversion method according to the manufacturer's instructions (Promega Non-Radioactive 96-well Titer assay, TB112). SH-SY5Y cells were tested in the same manner as fibroblasts but plated in collagen-coated plates (Nunc #152036). After 24 hour, 48 hour and 120 hour exposure to AdDNJ, living SH-SY5Y cells were quantified as described above. All dosing concentrations were done in triplicate.

[3] = Single dose pharmacokinetic study (oral gavage), plasma and brain LC-MS/MS; format: in vivo, C57BL/J6 mice
Procedure: 5-week-old C57BL/J6 mice (n=5 mice/group, Taconic Farms, Germantown, N.Y.) were administered vehicle (water) or AdDNJ (30, 100 or 300 mg/kg) via oral gavage every day for 14 days. On day 15 mice were euthanized and brain/plasma collected for analysis. For single dose PK studies, 5-week-old C57BL/J6 mice (n=5 mice/group, Taconic Farms, Germantown, N.Y.) received a single 100 mg/kg dose (oral gavage) of AdDNJ and groups euthanized at 0.5, 1, 2, 4, 8, 16, 24 and 48 hours post dose for brain and plasma analysis. Whole brain tissue (10-15 mg) was homogenized in 1 mL of pH 5 lysis buffer for measuring beta-hexosaminidase activity as described above. AdDNJ levels were measured in plasma and brain samples using LC-MS/MS.

[4] = test system: GM1, GM2, and GM3 ganglioside levels; assay: TLC analysis of whole brain ganglioside levels; format: in vivo, Dutch APP^E693Q transgenic mice; conditions: 3 months of 100 mg/kg
Procedure: (§1) The generation and characterization of Dutch APPE693Q mice transgenic mice is described in Gandy, S., et al. Days to criterion as an indicator of toxicity associated with human Alzheimer amyloid-beta oligomers. Annals of neurology 68, 220-230 (2010). 3-month-old male Dutch APP^E693Q mice transgenic mice were orally gavaged 5 days/week with either vehicle (water) (n=15) or 3, 10, 30 or 100 mg/kg AdDNJ for 3 months (n=13). All animal studies were approved and conducted in accordance with the Institutional Animal Care and Usage Committee. Mice were kept in a pathogen-free environment, on a 12-hour light/dark cycle and given ad libitum access to food and water. At 6 month of age treatment groups, and a 3-month-old untreated baseline group (n=15), were cognitively assessed in the NOR, EPM and FC tests. 48 hours following the final dose mice were perfused with ice-cold 1×PBS. The brain was removed and dissected into two hemispheres. One half was snap-frozen on dry ice and stored at −80° C. for biochemistry; the other half was post-fixed in 4% paraformaldehyde then sagittally sectioned on a vibratome into 30 μm sections and stored at 4° C. in storage buffer until histological analyses.

[5] = test system: Aβ; assay: Aβ immunohistochemistry (mAb 6E10); format: in vivo, Dutch APP^E693Q transgenic mice; conditions: 100 mg/kg, 3 months
Procedure: as §1
Aβ was assessed via free-floating immunohistochemistry using mAb 6E10 (1:1000, Covance) as previously described20. GAβ was assessed via free-floating immunohistochemistry using mouse anti-GAβ, clone 4396C (1:100), a gift from Dr. Katsuhiko Yanagisawa as previously described19. Images were captured on an Olympus BX61 upright microscope with an attached Olympus DP71 camera. Integrated density of GAβ staining was measured using Image J (National Institute of Health, Bethesda, Md.).

CC(=O)NC1CNC(CO)[C@@H](O)C1O (stereo partly shown) [AdDNJ, 2-acetamido-1,2-dideoxynojirimycin]
inhibition of β-glucocerebrosidase (GCase) [1]: did not inhibit | effect on cell viability [2]: little or no effect on cell viability | bioavailability ([3]; qualitative statement): good bioavailability | AdDNJ level reached in brain ([3]; single 100 mg/kg dose): > 342 nM | blood brain barrier penetration ([3]; single 100 mg/kg oral gavage): crossed the BBB | time for brain level to drop below Ki for β-hex at pH 5 (253 nM) ([3]; single 100 mg/kg oral gavage): ≤ 16 hours | ganglioside levels in whole brain extracts (TLC) [4]: did not reveal any changes in ganglioside levels | Aβ accumulation, CA1 region of the hippocampus [5]: no differences were observed | Aβ accumulation, subiculum [5]: qualitative region-specific reduction of Aβ accumulation | Aβ accumulation, visual cortex [5]: no differences were observed
